Source: ChEMBL document CHEMBL1125257, “Dihydropyrimidine calcium channel blockers. 3. 3-Carbamoyl-4-aryl-1,2,3,4-tetrahydro-6-methyl-5-pyrimidinecarboxylic acid esters as orally effective antihypertensive agents” (J Med Chem, 1991)

Tested on: Rattus norvegicus
Test: Antihypertensive activity when administered orally to spontaneously hypertensive rats
Type: functional, organism-based

| Compound | IC50 |
| --- | --- |
| CCOC(=O)C1=C(COCCN)NC(C)=C(C(=O)OC)C1c1ccccc1Cl (configuration not stated) [AMLODIPINE] | 2.5 nM |
| COC(=O)C1=C(C)NC(C)=C(C(=O)OC)C1c1ccccc1[N+](=O)[O-] [NIFEDIPINE] | 2.5 nM |
